Reference: ChEMBL document CHEMBL3734669, “Δ(5)-Cholenoyl-amino acids as selective and orally available antagonists of the Eph-ephrin system” (Eur J Med Chem, 2015)

Key:
Ephrin type-A receptor 7 = Ephrin type-A receptor 7 (Homo sapiens, UniProt Q15375); experiment: Displacement of biotinylated ephrin-A1-Fc from EphA7 (unknown origin) preincubated for 1 hr followed by biotinylated-ephrin-A1-Fc addition measured after 4 hrs by ELISA
[1] = biological target: T1, Ephrin type-A receptor 8 (Homo sapiens) (UniProt P29322); experiment: (§1) Displacement of biotinylated ephrin-A1-Fc from EphA8 (unknown origin) preincubated for 1 hr followed by biotinylated-ephrin-A1-Fc addition measured after 4 hrs by ELISA
T1 sequence (whole entry): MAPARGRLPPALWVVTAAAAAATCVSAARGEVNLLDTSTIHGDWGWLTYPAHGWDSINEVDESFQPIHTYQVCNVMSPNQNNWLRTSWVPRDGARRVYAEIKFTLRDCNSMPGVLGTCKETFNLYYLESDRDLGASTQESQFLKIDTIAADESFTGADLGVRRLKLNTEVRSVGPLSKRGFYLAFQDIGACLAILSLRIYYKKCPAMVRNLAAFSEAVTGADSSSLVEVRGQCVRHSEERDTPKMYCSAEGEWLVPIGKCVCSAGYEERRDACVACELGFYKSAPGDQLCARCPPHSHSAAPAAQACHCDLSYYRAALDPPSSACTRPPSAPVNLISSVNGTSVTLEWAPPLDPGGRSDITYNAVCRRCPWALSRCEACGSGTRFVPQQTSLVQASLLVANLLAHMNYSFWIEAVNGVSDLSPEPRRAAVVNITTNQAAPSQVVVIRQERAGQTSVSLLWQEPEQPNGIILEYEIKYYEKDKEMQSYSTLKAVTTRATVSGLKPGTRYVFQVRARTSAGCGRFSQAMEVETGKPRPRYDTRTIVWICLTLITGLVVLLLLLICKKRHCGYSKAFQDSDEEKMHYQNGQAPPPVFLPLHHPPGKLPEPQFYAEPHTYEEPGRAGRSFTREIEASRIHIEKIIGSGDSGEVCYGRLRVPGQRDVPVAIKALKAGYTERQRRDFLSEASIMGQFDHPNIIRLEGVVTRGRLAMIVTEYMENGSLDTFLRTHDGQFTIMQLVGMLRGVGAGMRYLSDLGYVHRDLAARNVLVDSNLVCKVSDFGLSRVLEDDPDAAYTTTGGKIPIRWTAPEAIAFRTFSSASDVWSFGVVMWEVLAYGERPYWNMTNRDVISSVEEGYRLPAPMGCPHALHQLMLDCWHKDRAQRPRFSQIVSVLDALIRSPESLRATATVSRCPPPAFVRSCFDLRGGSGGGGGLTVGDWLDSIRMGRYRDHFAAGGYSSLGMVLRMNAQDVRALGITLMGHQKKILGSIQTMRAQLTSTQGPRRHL

Ephrin type-A receptor 8 = biological target: T2, Ephrin type-A receptor 8 (Homo sapiens, UniProt P29322); experiment: as §1
T2 sequence (P29322 whole entry): T1 sequence (whole entry)

[2] = biological target: T3, Ephrin type-B receptor 1 (Homo sapiens) (UniProt P54762); experiment: (§2) Displacement of biotinylated ephrin-B1-Fc from EphB1 (unknown origin) preincubated for 1 hr followed by biotinylated-ephrin-B1-Fc addition measured after 4 hrs by ELISA
T3 sequence (whole entry): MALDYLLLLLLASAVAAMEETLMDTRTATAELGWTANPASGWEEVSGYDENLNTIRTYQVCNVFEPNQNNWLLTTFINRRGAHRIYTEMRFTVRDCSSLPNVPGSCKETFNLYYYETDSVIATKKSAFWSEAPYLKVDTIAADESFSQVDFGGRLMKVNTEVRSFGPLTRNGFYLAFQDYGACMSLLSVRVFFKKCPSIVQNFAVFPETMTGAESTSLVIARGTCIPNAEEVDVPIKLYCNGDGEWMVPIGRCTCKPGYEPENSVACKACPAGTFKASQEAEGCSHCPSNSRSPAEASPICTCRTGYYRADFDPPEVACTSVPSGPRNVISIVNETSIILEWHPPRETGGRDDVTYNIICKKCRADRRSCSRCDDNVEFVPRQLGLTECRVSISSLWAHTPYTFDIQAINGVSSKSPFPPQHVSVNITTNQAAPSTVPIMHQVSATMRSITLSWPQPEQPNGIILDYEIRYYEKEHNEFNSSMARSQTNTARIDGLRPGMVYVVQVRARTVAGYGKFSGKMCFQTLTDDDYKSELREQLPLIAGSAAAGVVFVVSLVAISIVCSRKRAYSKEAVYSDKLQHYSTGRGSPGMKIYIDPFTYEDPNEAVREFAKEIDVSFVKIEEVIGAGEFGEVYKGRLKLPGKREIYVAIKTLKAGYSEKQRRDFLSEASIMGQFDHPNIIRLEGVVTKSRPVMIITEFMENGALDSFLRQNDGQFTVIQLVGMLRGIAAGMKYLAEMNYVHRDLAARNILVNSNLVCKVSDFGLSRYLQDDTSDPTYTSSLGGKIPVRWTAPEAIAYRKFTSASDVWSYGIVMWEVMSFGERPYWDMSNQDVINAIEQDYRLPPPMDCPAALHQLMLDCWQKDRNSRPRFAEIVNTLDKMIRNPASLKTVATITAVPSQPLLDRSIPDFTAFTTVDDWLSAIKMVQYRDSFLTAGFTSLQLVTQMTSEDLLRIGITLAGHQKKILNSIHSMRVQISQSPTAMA

Ephrin type-B receptor 1 = biological target: T4, Ephrin type-B receptor 1 (Homo sapiens, UniProt P54762); experiment: as §2
T4 sequence (P54762 whole entry): T3 sequence (whole entry)

[3] = biological target: T5, Nuclear receptor subfamily 1 group I member 2 (Homo sapiens, UniProt O75469); experiment: Activation of human recombinant PXR up to 10 uM by alphascreen method
T5 sequence (O75469 whole entry): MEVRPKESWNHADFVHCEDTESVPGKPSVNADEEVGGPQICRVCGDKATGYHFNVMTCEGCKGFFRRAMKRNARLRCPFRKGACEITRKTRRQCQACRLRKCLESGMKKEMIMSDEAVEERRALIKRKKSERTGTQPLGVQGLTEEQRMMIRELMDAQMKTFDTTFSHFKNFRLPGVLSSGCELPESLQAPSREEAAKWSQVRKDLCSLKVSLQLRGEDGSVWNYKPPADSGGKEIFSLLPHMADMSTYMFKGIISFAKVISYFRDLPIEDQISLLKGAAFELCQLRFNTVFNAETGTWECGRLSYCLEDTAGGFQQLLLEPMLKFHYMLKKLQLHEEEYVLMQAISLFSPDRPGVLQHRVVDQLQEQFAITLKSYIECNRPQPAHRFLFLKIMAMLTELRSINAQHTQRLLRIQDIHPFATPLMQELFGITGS

C[C@H](CCC(=O)N[C@@H](Cc1c[nH]c2ccccc12)C(=O)O)[C@H]1CC[C@H]2[C@@H]3CC=C4C[C@@H](O)CC[C@]4(C)[C@H]3CC[C@]12C
IC50 (Ephrin type-A receptor 7): 2500 nM
inhibition (Ephrin type-A receptor 7): Dose-dependent effect
inhibition [1]: Dose-dependent effect
IC50 (Ephrin type-A receptor 8): 3.1 µM
inhibition [2]: Dose-dependent effect
IC50 (Ephrin type-B receptor 1): 2500 nM
Activity [3]: Not Active
